Measurements from patent publication US20220192955A1, “AZOXYSTROBIN EFFICACY IN SCALP HEALTH” (The Procter & Gamble Company, priority 2020, published 2022).
Marks after values point to notes of the source that are not given here.

What was measured:
[1] = tested on: Malassezia furfur (CBS 7982); test: In vitro evaluation of antifungal potency (MIC); format: cell-based
Protocol: Malassezia furfur (CBS 7982) is grown for approximately 24 hours in a 250 ml vent cap polycarbonate Erlenmeyer flask containing approximately 100 ml of mDixon medium and 5 ml of a fully grown M. furfur culture prepared using the same conditions as described. The cells are diluted by mixing 2.5 ml of the 24 hour-old culture per 50 ml of mDixon medium. A Versette robot (ThermoFisher Scientific) is used to transfer 292.5 μl of the dilute cells into each well of a Beckman 267007 polypropylene round bottom deep well plate. All compounds are sourced from Sigma Aldrich (St. Louis, Mo.) and prepared as 10 mg/ml in DMSO. A semipermeable aeraseal membrane is applied to the plate which is then be covered with water-soaked cotton batting. The samples are be shaken at 31° C. on a Heidolph Titramax 100 shaker at 1500 rpm for approximately 72 hours. The plates are shaken at 1250 rpm on an Eppendorf MixMate shaker to disperse the cells before transferring 200 μl to a Corning 3596 polystyrene plate. The samples are shaken again at 950 rpm on a MixMate shaker before the absorbance at 600 nm is read using a Molecular Devices SpectraMax plate reader.

IL-1RA: IL-1α = test: Scalp tape strip inflammatory cytokines IL-1RA:IL-1α; format: in vivo, human
Protocol: Subjects are enrolled in a double-blind, randomized study for all test groups and have Baseline and Week 3 measurements of scalp health taken for flaking, itch and scalp health endpoints. Subjects take home a test product(s) and are instructed on use of test products throughout the study. Test products are solubilized in a hydroalcoholic leave-on formulation. Azoxystrobin raw material is sourced from AK Scientific Inc. (Union City, Calif.) as >97% pure. Azoxystrobin scalp treatment is prepared from a slurry of azoxystrobin in ethanol that is formulated to 0.1% (w/v) in a base chassis of 50% ethanol, 0.35% Ultrez 21 (rheology modifier), 0.05% neutrol TE and water (q.s.). […] Biomarkers of scalp health, including biomarkers of inflammation, itch, oxidative stress and barrier integrity are assessed by non-invasive tape strip sampling of the scalp surface to determine therapeutic resolution. All biomarkers are analyzed from D-Squame® scalp tape samples that are collected from the scalp of subjects before and after scalp treatment with either azoxystrobin or vehicle (Baseline, and Week 3 respectively). These are extracted and analyzed according to published methods (International Journal of Dermatology 2011, 50, 102-113, incorporated by reference herein). […] Human inflammatory cytokines are analyzed to evaluate skin irritation and inflammatory processes. […]

CO/C=C(/C(=O)OC)c1ccccc1Oc1cc(Oc2ccccc2C#N)ncn1 [Azoxystrobin]
MIC value, Malassezia furfur ([1]; M. furfur CBS 7982, mDixon medium, 31° C., approximately 72 hours, absorbance at 600 nm): 0.39-0.49 ppm | times more potent than pyraclostrobin (MIC) ([1]; Malassezia furfur MIC ratio): 4 times | times more potent than zinc pyrithione (MIC) ([1]; Malassezia furfur MIC ratio): 8 times | IL-1RA: IL-1α ratio, % Change from Baseline (IL-1RA: IL-1α; 0.1% leave-on daily, Week 3, scalp tape strips): −58.3* % | reduction of Interleukin-1 (IL-1RA: IL-1α) (IL-1RA: IL-1α; compared to a placebo control): 58%
